Measurements taken from patent US8367830B2, “Methods for the identification of phosphatidylinositol kinase interacting molecules and for the purification of phosphatidylinositol kinase proteins” (Cellzome AG, priority 2009, dated 2013).

Tests used:
PIK3Cb = PIK3Cb (Homo sapiens, UniProt P42338); assay: Kinobeads competition binding, immobilized CZC31207, HeLa/placenta lysate mix; design: endogenous in cells; host or cells: mix of HeLa cell lysate and placenta lysate; settings: 10 μM free compound; mixed HeLa and placenta cell lysates
Protocol: (§1) To the first aliquot of cell lysate 10 μM of the free compound (CZC31207) was added and allowed to bind to proteins in the lysate. Then the affinity matrix with the immobilized compound (Example 1) was added to capture proteins that were not interacting with the previously added free compound. Beads were separated from the lysate and bead bound proteins were eluted in SDS sample buffer and subsequently separated by SDS-Polyacrylamide gel electrophoresis (FIG. 4). Suitable gel bands were cut out and subjected to in-gel proteolytic digestion with trypsin. The second lysate aliquot was processed identically, however no free compound was added (DMSO solvent control). Peptides originating from samples 1 and 2 were labeled with iTRAQ reagents (iTRAQ 115 and iTRAQ 117) and the combined samples were analyzed with a nano-flow liquid chromatography system coupled online to a tandem mass spectrometer (LC-MS/MS) experiment followed by iTRAQ reporter ion quantification in the MS/MS spectra (Ross et al., 2004. Mol. Cell. Proteomics 3(12):1154-1169). Further experimental protocols can be found in WO2006/134056 and a previous publication (Bantscheff et al., 2007. Nature Biotechnology 25, 1035-1044).
(§2) Cells were homogenized in a Potter S homogenizer in lysis buffer: 50 mM Tris-HCl, 0.8% NP40, 5% glycerol, 150 mM NaCl, 1.5 mM MgCl2, 25 mM NaF, 1 mM sodium vanadate, 1 mM DTT, pH 7.5. One complete EDTA-free tablet (protease inhibitor cocktail, Roche Diagnostics, 1 873 580) per 25 ml buffer was added. The material was dounced 20 times using a mechanized POTTER S, transferred to 50 ml falcon tubes, incubated for 30 minutes rotating at 4° C. and spun down for 10 minutes at 20,000×g at 4° C. (10,000 rpm in Sorvall SLA600, precooled). The supernatant was transferred to an ultracentrifuge (UZ)-polycarbonate tube (Beckmann, 355654) and spun for 1 hour at 145.000×g at 4° C. (40.000 rpm in Ti50.2, precooled). The supernatant was transferred again to a fresh 50 ml falcon tube, the protein concentration was determined by a Bradford assay (BioRad) and samples containing 50 mg of protein per aliquot were prepared. The samples were immediately used for experiments or frozen in liquid nitrogen and stored frozen at −80° C.
(§3) Sepharose-beads with the immobilized compound (100 μl beads per pull-down experiment) were equilibrated in lysis buffer and incubated with a cell lysate sample containing 50 mg of protein on an end-over-end shaker (Roto Shake Genie, Scientific Industries Inc.) for 2 hours at 4° C. Beads were collected, transferred to Mobicol-columns (MoBiTech 10055) and washed with 10 ml lysis buffer containing 0.4% NP40 detergent, followed by 5 ml lysis buffer containing 0.2% detergent. To elute bound proteins, 60 μl 2×SDS sample buffer was added to the column. […]

PIP5K2C = PIP5K2C (Homo sapiens, UniProt Q8TBX8); assay: as above; design: endogenous in cells; host or cells: mix of HeLa cell lysate and placenta lysate; settings: 10 μM free compound; mixed HeLa and placenta cell lysates
Chain of PIP5K2C (Q8TBX8 whole entry): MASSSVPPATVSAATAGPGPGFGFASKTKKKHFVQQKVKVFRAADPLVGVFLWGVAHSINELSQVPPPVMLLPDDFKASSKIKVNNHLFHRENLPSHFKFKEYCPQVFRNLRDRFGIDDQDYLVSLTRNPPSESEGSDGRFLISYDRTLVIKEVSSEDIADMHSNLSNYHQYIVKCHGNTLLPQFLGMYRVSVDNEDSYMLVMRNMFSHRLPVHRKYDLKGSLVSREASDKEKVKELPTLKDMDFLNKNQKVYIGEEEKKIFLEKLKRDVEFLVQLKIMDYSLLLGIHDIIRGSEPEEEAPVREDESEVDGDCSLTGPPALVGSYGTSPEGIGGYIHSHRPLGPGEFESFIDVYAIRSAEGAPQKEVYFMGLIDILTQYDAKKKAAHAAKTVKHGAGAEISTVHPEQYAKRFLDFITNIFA
Protocol: as §1, §2, §3

NEK2 = NEK2 (Homo sapiens, UniProt P51955); assay: as above; design: endogenous in cells; host or cells: mix of HeLa cell lysate and placenta lysate; settings: 10 μM free compound; mixed HeLa and placenta cell lysates
Chain of NEK2 (P51955 whole entry): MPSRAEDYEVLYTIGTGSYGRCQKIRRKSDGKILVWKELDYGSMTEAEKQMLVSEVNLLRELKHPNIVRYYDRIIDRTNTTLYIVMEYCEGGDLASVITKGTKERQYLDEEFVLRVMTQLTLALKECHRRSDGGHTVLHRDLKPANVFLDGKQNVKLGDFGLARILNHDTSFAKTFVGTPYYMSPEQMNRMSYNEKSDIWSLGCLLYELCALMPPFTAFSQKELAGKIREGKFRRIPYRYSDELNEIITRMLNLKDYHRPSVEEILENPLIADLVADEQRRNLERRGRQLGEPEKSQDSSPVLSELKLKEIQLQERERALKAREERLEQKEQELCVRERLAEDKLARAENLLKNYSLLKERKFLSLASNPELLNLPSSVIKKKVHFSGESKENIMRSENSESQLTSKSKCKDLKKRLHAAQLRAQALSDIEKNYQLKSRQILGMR
Protocol: as §1, §2, §3

PIK4Ca = PIK4Ca (Homo sapiens, UniProt P42356); assay: Kinobeads competition binding, immobilized CZC31207, Jurkat/Ramos lysate mix; design: capturing and identification of kinases from amix of Jurkat and Ramos cell lysates; endogenous in cells; host or cells: mix of Jurkat and Ramos cell lysates; settings: 10 μM free compound; mix of Jurkat and Ramos cell lysates
Chain of PIK4Ca (P42356 whole entry): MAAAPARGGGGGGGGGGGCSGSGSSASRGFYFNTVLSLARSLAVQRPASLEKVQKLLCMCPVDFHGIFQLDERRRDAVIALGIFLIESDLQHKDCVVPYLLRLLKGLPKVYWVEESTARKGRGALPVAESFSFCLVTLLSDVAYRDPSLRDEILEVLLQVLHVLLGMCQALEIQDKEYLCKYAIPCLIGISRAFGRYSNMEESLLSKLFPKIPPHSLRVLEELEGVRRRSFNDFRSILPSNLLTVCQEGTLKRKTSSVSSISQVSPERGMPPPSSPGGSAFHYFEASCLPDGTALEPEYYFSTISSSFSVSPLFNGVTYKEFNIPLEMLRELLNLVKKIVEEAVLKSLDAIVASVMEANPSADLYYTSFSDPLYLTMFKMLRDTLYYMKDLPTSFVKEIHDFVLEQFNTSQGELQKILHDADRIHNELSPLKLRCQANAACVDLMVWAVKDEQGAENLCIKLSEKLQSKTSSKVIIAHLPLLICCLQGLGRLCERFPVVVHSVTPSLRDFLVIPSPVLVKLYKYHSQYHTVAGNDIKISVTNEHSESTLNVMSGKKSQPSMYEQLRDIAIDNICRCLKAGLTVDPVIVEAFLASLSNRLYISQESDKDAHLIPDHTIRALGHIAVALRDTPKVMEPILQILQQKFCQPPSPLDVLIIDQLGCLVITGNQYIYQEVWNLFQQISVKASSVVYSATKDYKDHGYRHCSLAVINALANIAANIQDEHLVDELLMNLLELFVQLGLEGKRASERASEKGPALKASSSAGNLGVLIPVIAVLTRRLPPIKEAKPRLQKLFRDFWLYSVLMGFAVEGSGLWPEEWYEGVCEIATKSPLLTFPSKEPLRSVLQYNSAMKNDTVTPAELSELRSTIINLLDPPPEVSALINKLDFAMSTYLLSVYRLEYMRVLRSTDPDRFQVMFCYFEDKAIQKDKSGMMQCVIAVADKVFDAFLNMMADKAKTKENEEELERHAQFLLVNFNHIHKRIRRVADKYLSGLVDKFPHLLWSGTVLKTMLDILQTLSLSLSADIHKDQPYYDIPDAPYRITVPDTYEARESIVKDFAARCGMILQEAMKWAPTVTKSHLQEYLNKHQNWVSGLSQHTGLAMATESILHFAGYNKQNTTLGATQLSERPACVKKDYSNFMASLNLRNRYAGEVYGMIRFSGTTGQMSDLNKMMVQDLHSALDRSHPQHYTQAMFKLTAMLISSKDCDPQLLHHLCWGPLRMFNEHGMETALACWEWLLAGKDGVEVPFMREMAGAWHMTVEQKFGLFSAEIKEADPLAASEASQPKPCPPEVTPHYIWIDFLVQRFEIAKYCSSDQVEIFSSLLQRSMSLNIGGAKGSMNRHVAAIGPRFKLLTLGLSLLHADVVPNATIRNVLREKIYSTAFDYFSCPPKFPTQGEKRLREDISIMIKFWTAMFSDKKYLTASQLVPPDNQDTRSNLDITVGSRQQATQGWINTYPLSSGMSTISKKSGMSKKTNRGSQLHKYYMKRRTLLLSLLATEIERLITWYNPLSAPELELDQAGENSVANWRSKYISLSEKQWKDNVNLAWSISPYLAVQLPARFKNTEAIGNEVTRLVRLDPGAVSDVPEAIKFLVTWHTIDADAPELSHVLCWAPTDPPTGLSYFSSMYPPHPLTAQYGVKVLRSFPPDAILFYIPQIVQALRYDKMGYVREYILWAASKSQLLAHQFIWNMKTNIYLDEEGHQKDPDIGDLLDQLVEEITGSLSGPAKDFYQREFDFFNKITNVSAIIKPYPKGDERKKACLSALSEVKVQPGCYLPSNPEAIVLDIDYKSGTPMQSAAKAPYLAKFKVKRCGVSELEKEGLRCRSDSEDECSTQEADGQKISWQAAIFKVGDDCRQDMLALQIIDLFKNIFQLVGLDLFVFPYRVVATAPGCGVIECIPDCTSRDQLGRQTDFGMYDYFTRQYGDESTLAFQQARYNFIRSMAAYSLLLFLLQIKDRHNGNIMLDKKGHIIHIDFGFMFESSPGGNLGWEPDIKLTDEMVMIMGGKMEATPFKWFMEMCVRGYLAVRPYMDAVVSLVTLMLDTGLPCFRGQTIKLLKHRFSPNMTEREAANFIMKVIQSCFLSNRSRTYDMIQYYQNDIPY
Protocol: (§4) To the first aliquot of cell lysate 10 μM of the free compound CZC31207 was added and allowed to bind to proteins in the lysate. Then the affinity matrix with the immobilized compound was added to capture proteins that were not interacting with the previously added free compound. Beads were separated from the lysate and bead bound proteins were eluted in SDS sample buffer and subsequently separated by SDS-Polyacrylamide gel electrophoresis (FIG. 5). Suitable gel bands were cut out and subjected to in-gel proteolytic digestion with trypsin. The second lysate aliquot was processed identically, however no free compound was added (DMSO solvent control). Peptides originating from samples 1 and 2 were labeled with iTRAQ reagents (iTRAQ 114 and iTRAQ 116) and the combined samples were analyzed with a nano-flow liquid chromatography system coupled online to a tandem mass spectrometer (LC-MS/MS) experiment followed by iTRAQ reporter ion quantification in the MS/MS spectra as described in Example 2.
(§5) Jurkat cells (ATCC number T1B-152) and Ramos cells (ATCC number CRL-1596) were either obtained from an external supplier (CIL SA, Mons, Belgium) or grown in one litre Spinner flasks (Integra Biosciences, #182101) in suspension in RPMI 1640 medium (Invitrogen, #21875-034) supplemented with 10% Fetal Bovine Serum (Invitrogen, #10270-106) at a density between 0.2×10^6 and 1.0×10^6 cells/ml. […]

CaMK2g = CaMK2g (Homo sapiens, UniProt Q13555); assay: as above; design: capturing and identification of kinases from amix of Jurkat and Ramos cell lysates; endogenous in cells; host or cells: mix of Jurkat and Ramos cell lysates; settings: 10 μM free compound; mix of Jurkat and Ramos cell lysates
Chain of CaMK2g (Q13555 whole entry): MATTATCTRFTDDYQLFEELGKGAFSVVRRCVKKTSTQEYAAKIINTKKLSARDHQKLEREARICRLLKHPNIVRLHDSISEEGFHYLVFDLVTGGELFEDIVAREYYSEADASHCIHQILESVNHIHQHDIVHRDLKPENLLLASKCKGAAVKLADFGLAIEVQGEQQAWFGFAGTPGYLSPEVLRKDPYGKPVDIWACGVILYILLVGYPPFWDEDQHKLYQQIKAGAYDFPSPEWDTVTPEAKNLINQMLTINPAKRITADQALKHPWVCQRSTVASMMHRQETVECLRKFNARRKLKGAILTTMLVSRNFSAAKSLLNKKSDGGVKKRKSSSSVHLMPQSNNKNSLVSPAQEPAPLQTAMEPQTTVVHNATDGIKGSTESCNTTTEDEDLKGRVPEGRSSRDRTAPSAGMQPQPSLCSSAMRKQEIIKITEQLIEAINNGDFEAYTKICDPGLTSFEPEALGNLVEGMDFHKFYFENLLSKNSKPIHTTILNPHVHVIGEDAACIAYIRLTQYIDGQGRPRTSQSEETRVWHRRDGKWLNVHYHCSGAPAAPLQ
Protocol: as §4, §5

For CC(C)NS(=O)(=O)c1cncc(-c2ccc3nc(NC(=O)NCCN)nn3c2)c1 [CZC31207, 5-(2-(3-(2-aminoethyl)ureido)-[1,2,4]triazolo[1,5-a]pyridin-6-yl)-N-isopropylpyridine-3-sulfonamide], the “Competition % PIK3Cb” value (PIK3Cb) was 85.6%, the “Competition % PIP5K2C” value (PIP5K2C) was 78.3% and the “Competition % NEK2” value (NEK2) was 40.4%. For the same compound, the “Competition % PIK4Ca” value (PIK4Ca) was 28.5% and the “Competition % CaMK2g” value (CaMK2g) was −3.1%.
